Reference: ChEMBL document CHEMBL5233251, “Epoxide containing molecules: A good or a bad drug design approach” (Eur J Med Chem, 2020)
In brackets after ≈: the same amount, converted by molar mass.

Columns and labels:
K562 [1] = assay: Antiproliferative activity against human K562 cells assessed as reduction in cell viability incubated for 48 hrs by CytoX cell viability assay; assay type: functional, cell-based; settings: K562, 48 h
DU-145 = assay: Antiproliferative activity against human DU-145 cells assessed as reduction in cell viability incubated for 48 hrs by CytoX cell viability assay; assay type: functional, cell-based; settings: DU-145, 48 h
HeLa [2] = assay: Antiproliferative activity against human HeLa cells assessed as reduction in cell viability incubated for 48 hrs by CytoX cell viability assay; assay type: functional, cell-based
HCT-15 = assay: Antiproliferative activity against human HCT-15 cells assessed as reduction in cell viability incubated for 48 hrs by CytoX cell viability assay; assay type: functional, cell-based; settings: HCT-15, 48 h
MCF7 [3] = assay: Antiproliferative activity against human MCF7 cells assessed as reduction in cell viability incubated for 48 hrs by CytoX cell viability assay; assay type: functional, cell-based; settings: MCF7, 48 h
HEp-2 = assay: Cytotoxicity against human HEp-2 cells assessed as inhibition of cell growth; assay type: functional; settings: read-out: ED50 (the source's name)
MG-63 [4] = assay: Antiproliferative activity against human MG-63 cells assessed as inhibition of cell growth by MTT assay; assay type: functional, cell-based
MG-63 [5] = assay: Antiproliferative activity against human MG-63 cells assessed as reduction in cell viability by SRB assay; assay type: functional, cell-based
HL-60 = assay: Antiproliferative activity against human HL-60 cells assessed as inhibition of cell growth incubated for 72 hrs by MTT assay; assay type: functional, cell-based; settings: HL-60, 72 h
OVCAR-8 = assay: Antiproliferative activity against human OVCAR-8 cells assessed as inhibition of cell growth incubated for 72 hrs by MTT assay; assay type: functional, cell-based; settings: OVCAR-8, 72 h
HCT-116 = assay: Antiproliferative activity against human HCT-116 cells assessed as inhibition of cell growth incubated for 72 hrs by MTT assay; assay type: functional, cell-based; settings: HCT-116, 72 h
SF-295 = assay: Antiproliferative activity against human SF-295 cells assessed as inhibition of cell growth incubated for 72 hrs by MTT assay; assay type: functional, cell-based; settings: SF-295, 72 h
Leishmania donovani = assay: Antileishmanial activity against Leishmania donovani promastigotes; assay type: functional, organism-based
A2780 [6] = assay: Cytotoxicity against human A2780 cells assessed as inhibition of cell growth incubated for 96 hrs by SRB assay; assay type: toxicity, cell-based; settings: A2780, 96 h
NCI-H522 = assay: Cytotoxicity against human NCI-H522 cells assessed as inhibition of cell growth incubated for 3 days; assay type: functional, cell-based; settings: NCI-H522, 72 h
[7] = Cytotoxicity against human RPMI-8226/Dox40 cells assessed as inhibition of cell growth incubated for 3 days; assay type: functional, cell-based; settings: RPMI-8226, 72 h
Hyalomma lusitanicum = assay: Anti-insecticidal activity against Hyalomma lusitanicum Koch larvae assessed as inhibition of larval growth; assay type: functional; settings: for LC50: Hyalomma lusitanicum, read-out: LD50 (the source's name)
Aromatase [8] = biological target: T1, Aromatase (Homo sapiens, UniProt P11511); assay: Inhibition of aromatase in human MCF-7aro cells using [1beta-3H] androstenedione as substrate incubated for 1 hrs; assay type: cell-based
T1 sequence (P11511 whole entry): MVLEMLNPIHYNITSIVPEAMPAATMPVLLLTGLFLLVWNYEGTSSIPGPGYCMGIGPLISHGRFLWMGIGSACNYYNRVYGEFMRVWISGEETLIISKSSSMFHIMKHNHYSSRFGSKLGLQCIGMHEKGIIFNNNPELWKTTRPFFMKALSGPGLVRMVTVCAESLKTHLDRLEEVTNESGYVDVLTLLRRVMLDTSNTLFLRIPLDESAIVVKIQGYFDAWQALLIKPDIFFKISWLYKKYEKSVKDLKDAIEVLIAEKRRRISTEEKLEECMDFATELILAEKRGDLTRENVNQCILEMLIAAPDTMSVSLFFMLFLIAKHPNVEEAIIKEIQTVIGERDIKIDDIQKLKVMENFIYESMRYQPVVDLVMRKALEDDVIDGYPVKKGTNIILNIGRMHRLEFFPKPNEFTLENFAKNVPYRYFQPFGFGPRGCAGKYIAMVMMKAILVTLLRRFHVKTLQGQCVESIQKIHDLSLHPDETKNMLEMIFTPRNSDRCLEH

Aromatase [9] = biological target: T1, Aromatase; assay: Inhibition of aromatase in disrupted human MCF-7aro cells using [1beta-3H] androstenedione as substrate incubated for 1 hrs in the presence of NADPH
Aromatase [10] = biological target: T1, Aromatase; assay: Inhibition of aromatase in human MCF-7aro cells using [1beta-3H] androstenedione as substrate at 10 uM incubated for 1 hrs relative to control; assay type: cell-based
Plasmodium falciparum [11] = assay: Antimalarial activity against […] incubated for 48 hrs; assay type: functional, organism-based; settings: K1, 48 h
Plasmodium falciparum [12] = assay: Antimalarial activity against Sulfadoxine-sensitive Plasmodium falciparum D6; assay type: functional, organism-based
Plasmodium falciparum [13] = assay: Antimalarial activity against Sulfadoxine-resistant Plasmodium falciparum 3D7; assay type: functional, organism-based
Plasmodium falciparum [14] = assay: Antimalarial activity against Sulfadoxine-sensitive Plasmodium falciparum FCR3; assay type: functional, organism-based
Plasmodium falciparum [15] = assay: Antimalarial activity against chloroquine-sensitive Plasmodium falciparum D10 incubated for 48 hrs; assay type: functional, organism-based; settings: D10, 48 h
Plasmodium falciparum [16] = assay: Antimalarial activity against Sulfadoxine-resistant Plasmodium falciparum W2; assay type: functional, organism-based
Plasmodium falciparum [17] = assay: Antimalarial activity against Sulfadoxine-sensitive Plasmodium falciparum HB3; assay type: functional, organism-based
HT-29 = assay: Antiproliferative activity against human HT-29 cells assessed as inhibition of cell proliferation incubated for 4 days by MTT assay; assay type: functional, cell-based; settings: HT-29, 96 h
Malme-3M = assay: Antiproliferative activity against human Malme-3M cells assessed as inhibition of cell proliferation incubated for 4 days by MTT assay; assay type: functional, cell-based; settings: 96 h
A2780 [18] = assay: Antiproliferative activity against human A2780 cells assessed as inhibition of cell proliferation incubated for 4 days by MTT assay; assay type: functional, cell-based; settings: A2780, 96 h
HeLa [19] = assay: Antiproliferative activity against human HeLa cells assessed as inhibition of cell proliferation incubated for 4 days by MTT assay; assay type: functional, cell-based; settings: 96 h
K562 [20] = assay: Antiproliferative activity against human K562/C1000 cells assessed as inhibition of cell proliferation incubated for 4 days by MTT assay; assay type: functional, cell-based; settings: K562, 96 h
MCF7 [21] = assay: Antiproliferative activity against human MCF7 cells assessed as inhibition of cell proliferation incubated for 4 days by MTT assay; assay type: functional, cell-based; settings: MCF7, 96 h
NCI-H1299 = assay: Antiproliferative activity against human NCI-H1299 cells assessed as inhibition of cell proliferation incubated for 4 days by MTT assay; assay type: functional, cell-based; settings: NCI-H1299, 96 h
MDA-MB-231 = assay: Cytotoxicity against human MDA-MB-231 cells assessed as inhibition of cell growth incubated for 48 hrs by SRB assay; assay type: functional, cell-based; settings: MDA-MB-231, 48 h
PC-3 = assay: Cytotoxicity against human PC-3 cells assessed as inhibition of cell growth incubated for 48 hrs by SRB assay; assay type: functional, cell-based; settings: PC-3, 48 h
MCF7 [22] = assay: Cytotoxicity against human MCF7 cells assessed as inhibition of cell growth incubated for 48 hrs by SRB assay; assay type: functional, cell-based; settings: MCF7, 48 h

Cc1cc(=O)c2c(OC[C@@H]3CO3)cc(OC[C@H]3CO3)cc2o1
IC50 (K562 [1]): 1.49 µM | IC50 (DU-145): 20.4 µM | IC50 (HeLa [2]): 11 µM | IC50 (HCT-15): 12.1 µM | IC50 (MCF7 [3]): 13.9 µM

C[C@@H]1C[C@H]2OC(=O)[C@@H](C)[C@H]2[C@H](O)[C@]2(C)C(=O)C3OC3[C@@H]12 (stereo partly specified)
EC50 (HEp-2): 0.11 µg/mL (≈ 0.392 µM)

C[C@@H]1CC[C@@H]([C@@]2(C)CO2)[C@H](OCc2ccccc2)C1
IC50 (MG-63 [4]): 100 µM | IC50 (MG-63 [5]): 100 µM

CC[C@@]1(O)C(=O)OCc2c1cc1n(c2=O)Cc2cc3ccccc3nc2-1 [CAMPTOTHECIN]
IC50 (K562 [1]): 2.69 µM | IC50 (DU-145): 1.99 µM | IC50 (HeLa [2]): 6 µM | IC50 (HCT-15): 1.59 µM | IC50 (MCF7 [3]): 2.8 µM

C=C(C)[C@H]1CCC2(C=O)OC2C1 (stereo partly specified)
IC50 (HL-60): 9.7 µM | IC50 (OVCAR-8): 23.6 µM | IC50 (HCT-116): 16.1 µM | IC50 (SF-295): 22 µM | IC50 (Leishmania donovani): 64.6 µg/mL (≈ 389 µM)

CC1=CC[C@]23O[C@@]2(C)CC[C@@H]2[C@H](OC(=O)[C@H]2CN2CCNCC2)[C@@H]13
IC50 (A2780 [6]): 3.75 µM

C=C1C(=O)O[C@@H]2C[C@@H](C)[C@@H]3C4OC4C(=O)[C@@]3(C)[C@@H](O)[C@H]12 (stereo partly specified)
EC50 (HEp-2): 0.11 µg/mL (≈ 0.395 µM)

C[C@]1([C@H]2Cc3ccc4c(c3O2)-n2cc(C(=O)O)c(=O)c3cc(F)c(N5CC[C@H](N)C5)c(c32)O4)CO1
IC50 (NCI-H522): 0.07 µM | IC50 [7]: 0.05 µM

C=C1C(=O)O[C@@H]2C[C@@H](C)[C@]34O[C@H]3CC(=O)[C@@]4(C)[C@@H](O)[C@H]12
EC50 (HEp-2): 0.11 µg/mL (≈ 0.395 µM)

C/C1=C\CC2(OC2(C)C)C(=O)C/C(C)=C/CC1 (stereo unspecified)
LD90 (Hyalomma lusitanicum): 2.43 mg/mL | LC50 (Hyalomma lusitanicum): 1210 µg/mL (≈ 5160 µM)

CC1=C2CC3(OC3(C)C)C(=O)C[C@@]2(C)CCC1 (stereo partly specified)
LD90 (Hyalomma lusitanicum): 6.33 mg/mL | LC50 (Hyalomma lusitanicum): 4140 µg/mL (≈ 17700 µM)

CC(C)=C1C/C=C(\C)CCCC2(C)OC2C1=O (stereo unspecified)
LD90 (Hyalomma lusitanicum): 2.98 mg/mL | LC50 (Hyalomma lusitanicum): 2320 µg/mL (≈ 9900 µM)

C[C@]12CC[C@H]3[C@@H](CC[C@@]45O[C@@H]4CCC[C@]35C)[C@@H]1CCC2=O
IC50 (Aromatase [8]): 8.5 µM | IC50 (Aromatase [9]): 1.2 µM | inhibition at 10 µM (Aromatase [10]): 52.2%

CC(C)[C@@]12CC[C@@](C)(OO1)[C@@H]1O[C@@H]12
IC50 (Plasmodium falciparum [11]): 0.08 µM | IC50 (Plasmodium falciparum [12]): 0.01 µM | IC50 (Plasmodium falciparum [13]): > 10 µM | IC50 (Plasmodium falciparum [14]): 0.01 µM | IC50 (Plasmodium falciparum [15]): 0.08 µM | IC50 (Plasmodium falciparum [16]): > 10 µM | IC50 (Plasmodium falciparum [17]): 0.01 µM

Cc1cccc([C@]23CC[C@](c4cccc(C)c4)(OO2)[C@H]2O[C@H]23)c1
IC50 (Plasmodium falciparum [11]): 0.08 µM | IC50 (Plasmodium falciparum [12]): 0.01 µM | IC50 (Plasmodium falciparum [13]): > 10 µM | IC50 (Plasmodium falciparum [14]): 0.01 µM | IC50 (Plasmodium falciparum [15]): 0.08 µM | IC50 (Plasmodium falciparum [16]): > 10 µM | IC50 (Plasmodium falciparum [17]): 0.01 µM

CC1(C)NC(=O)[C@@H](CCCCCC(=O)[C@@H]2CO2)NC(=O)CC2CCCN2C(=O)[C@@H](Cc2ccccc2)NC1=O (stereo partly specified)
IC50 (HT-29): 0.0043 µM | IC50 (Malme-3M): 0.045 µM | IC50 (A2780 [18]): 0.00036 µM | IC50 (HeLa [19]): 0.014 µM | IC50 (K562 [20]): 0.00076 µM | IC50 (MCF7 [21]): 0.0053 µM | IC50 (NCI-H1299): 0.004 µM

Cc1cc(=O)c2c(O)cc(OC[C@@H]3CO3)cc2o1
IC50 (K562 [1]): 8.03 µM | IC50 (DU-145): 7.58 µM | IC50 (HeLa [2]): 11.9 µM | IC50 (HCT-15): 17.5 µM | IC50 (MCF7 [3]): 36.2 µM

C[C@]12CC[C@H]3[C@@H]([C@@H]4O[C@@H]4C4=CC(=O)C=C[C@@]43C)[C@@H]1CC(=O)OC2
IC50 (MDA-MB-231): > 100 µM | IC50 (PC-3): > 100 µM | IC50 (MCF7 [22]): > 100 µM

Cc1cc(=O)c2c(OC[C@@H]3CO3)cc(OC[C@@H]3CO3)cc2o1
IC50 (K562 [1]): 19.5 µM | IC50 (DU-145): 24.5 µM | IC50 (HeLa [2]): 21.7 µM | IC50 (HCT-15): 39.5 µM | IC50 (MCF7 [3]): 46.1 µM
